Patent US20100297109A1, “METHODS FOR INHIBITING FASCIN” (Cornell University, priority 2007, published 2010)

How the values were obtained:
villin = molecular target: T1, villin (Homo sapiens, UniProt P09327); test: Migration of fascin siRNA-treated 4T1 cells rescued with villin; type: cell-based; set-up: expressed in transfected cells; host or cells: 4T1 mouse mammary tumor cells treated with fascin siRNA; details: villin over-expression in fascin siRNA-treated 4T1 cells
T1 sequence (P09327 1-827): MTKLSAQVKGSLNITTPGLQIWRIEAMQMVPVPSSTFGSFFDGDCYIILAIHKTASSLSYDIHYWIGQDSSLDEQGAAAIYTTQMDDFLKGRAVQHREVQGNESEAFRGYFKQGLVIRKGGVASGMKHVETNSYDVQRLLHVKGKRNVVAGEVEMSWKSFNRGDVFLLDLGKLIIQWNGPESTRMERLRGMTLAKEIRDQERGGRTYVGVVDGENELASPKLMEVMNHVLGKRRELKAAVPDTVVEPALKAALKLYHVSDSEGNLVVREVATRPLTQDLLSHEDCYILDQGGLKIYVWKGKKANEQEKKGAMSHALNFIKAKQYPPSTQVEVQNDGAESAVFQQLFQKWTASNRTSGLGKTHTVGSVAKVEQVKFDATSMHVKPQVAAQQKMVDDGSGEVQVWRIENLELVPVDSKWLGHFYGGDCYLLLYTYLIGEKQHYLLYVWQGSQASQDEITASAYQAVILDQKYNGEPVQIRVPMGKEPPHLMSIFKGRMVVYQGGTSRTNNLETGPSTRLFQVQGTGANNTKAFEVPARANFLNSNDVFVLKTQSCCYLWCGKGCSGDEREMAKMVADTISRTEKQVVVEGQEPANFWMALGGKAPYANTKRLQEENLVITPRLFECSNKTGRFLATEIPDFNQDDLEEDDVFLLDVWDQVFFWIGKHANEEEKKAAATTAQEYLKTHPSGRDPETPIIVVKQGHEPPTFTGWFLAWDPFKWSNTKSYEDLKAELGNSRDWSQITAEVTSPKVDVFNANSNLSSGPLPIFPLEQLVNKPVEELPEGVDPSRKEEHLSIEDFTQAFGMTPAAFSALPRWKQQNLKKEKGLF
Procedure: Boyden Chamber Cell Migration Assay. Cells (5×10^4) suspended in starvation medium were added to the upper chamber of an insert (6.5 mm diameter, 8-micrometer pore size, Becton Dickenson), and the insert was placed in a 24-well dish containing starvation medium with or without 10% FBS (Yang et al. 2005, Shan et al. 2006). When used, inhibitors were added to both chambers. Migration assays were carried out for 4-6 hours and cells were fixed with 3.7% formaldehyde. Cells were stained with crystal violet staining solution, and cells on the upper side of the insert were removed with a cotton swab. Three randomly selected fields (10× objectives) on the lower side of the insert were photographed, and the migrated cells were counted. The migration was expressed as either the average number of migrated cells in a field or as percentage of migrated cells in positive control. Percentage was calculated with the formula P=100×(M−Mnc)/Mpc, where P is the percentage of migrated cells, M is the number of migrated cells, Mnc is the number of migrated cells in negative controls, and Mpc is the number of migrated cells in positive controls.

fascin [1] = molecular target: T2, fascin (Homo sapiens, UniProt Q16658); type: biochemical; set-up: GST (N); made in house; host or cells: Escherichia coli BL21; details: fluorescence microscopy
Procedure: (§1) Whole cell lysates from 4T1 mouse breast tumor cells were made. After preclearing the cell lysate with immobilized neutravidin biotin binding protein (Pierce, IL, USA) to remove biotin and avidin-binding proteins, the cell lysates were loaded to a column packed with the biotin-labeled macroketone (conjugated to neutravidin beads). A control column packed with free biotin and neutravidin beads was run side-by-side. After washing the column with 10 bed volumes of lysis buffer with 300 mM NaCl, the bound proteins were eluted with 0.1 M Glycine-HCl at pH 2.8 according to the manufacturer's instruction. […] Protein Expression and Purification. Recombinant GST-fascin fusion protein was produced in BL21 Escherichia coli. A 1-liter culture was grown to an A600 reading of 1.0 and then induced by addition of 0.3 mM isopropyl 1-thio-D-galactopyranoside (IPTG) for 12 hours at 25° C. Cells were flash frozen and then lysed by sonication in Tris-buffered saline. The supernatant was then incubated with glutathione-Sepharose for 2 h at 4° C. After extensive washing, GST-fascin was eluted and concentrated with a Centricon Plus-20 (Millipore). To remove the GST tag from the fusion protein, beads were incubated with thrombin overnight at 4° C. The supernatant was collected and concentrated. […] Actin bundling activity was measured by low speed centrifugation assay and fluorescence microscopy. […]

fascin [2] = molecular target: T2, fascin; test: F-actin bundling assay, low-speed centrifugation (F-actin pelleting); type: biochemical; set-up: GST (N); made in house; host or cells: Escherichia coli BL21
Procedure: as §1

For COC1C=CCCCCC(=O)CCC(C)=CC(C)C1O (centres unmarked) [macroketone, Migrastatin ketone], the “sensitivity of rescued migration” value (villin) was “insensitive”, the “inhibition of formation of F-actin bundles” value (fascin [1]; fascin present) was over 80% and the “ability of fascin to bundle actin polymers” value (fascin [1]; preincubation of fascin) was “decreased the ability of fascin to bundle actin polymers”. For the same compound, the “fascin-induced bundling of F-actin polymers” value (fascin [2]; with fascin) was “significantly decreased” and the “formation of F-actin bundles, compound alone” value (fascin [2]; without fascin) was “had no effect”.
